In DBAASP:
Converted amounts (≈) assume the structure as drawn. Blank lines part the entries; values can stand above or below the compound they belong to.

Legend:
Test in all cases: ≥ marks a high value that may be exact or a test limit, other limits are often not marked, values filed in µg/mL are converted to µM
[1] = test system: Staphylococcus aureus ST88
[2] = test system: Escherichia coli K12 MG1655
Bacillus subtilis 168 HT = test system: Bacillus subtilis 168 HT
[3] = test system: Staphylococcus haemolyticus 527
[4] = test system: Candida albicans ATCC 36232
[5] = test system: Proteus vulgaris ATCC 6380
[6] = test system: Micrococcus luteus ATCC 9341
Staphylococcus aureus = test system: Staphylococcus aureus
[7] = test system: Pseudomonas aeruginosa ATCC 9027
[8] = test system: Escherichia coli ATCC 2592
[9] = test system: Staphylococcus aureus ATCC 6538
[10] = test system: Staphylococcus aureus NBRC 12732
[11] = test system: Pseudomonas aeruginosa NBRC 12582
[12] = test system: Escherichia coli NBRC 14237
[13] = test system: Cutibacterium acnes PCM 2400
[14] = test system: Escherichia coli ATCC 25922
[15] = test system: Cutibacterium acnes PCM 2334
[16] = test system: Staphylococcus aureus ATCC 25923
[17] = test system: Pseudomonas aeruginosa ATCC 27853
[18] = test system: Staphylococcus epidermidis ATCC 12228
[19] = test system: Micrococcus luteus NBRC 3333
[20] = test system: Aspergillus oryzae NBRC 100959
[21] = test system: Candida viswanathii NBRC 10321
[22] = test system: Escherichia coli NBRC 3972
[23] = test system: Staphylococcus epidermidis NBRC 12993
[24] = test system: Pseudomonas putida NBRC 100650
[25] = test system: Streptococcus parauberis KSP 28
[26] = test system: Vibrio ordalii KCCM 41669
[27] = test system: Vibrio campbellii KCCM 40684
[28] = test system: Vibrio anguillarum TR14001NF
[29] = test system: Streptococcus iniae FP5228
[30] = test system: Vibrio alginolyticus KCCM 2928
[31] = test system: Vibrio harveyi ATCC 14126
[32] = test system: Streptococcus parauberis PH0710
[33] = test system: Edwardsiella piscicida FSW 910410

Compound: CC[C@H](C)[C@H](NC(=O)[C@H](CCCCN)NC(=O)[C@@H](NC(=O)[C@@H](N)Cc1ccccc1)C(C)C)C(=O)N[C@@H](CC(C)C)C(=O)N[C@@H](C)C(=O)N[C@@H](CCCCN)C(=O)N[C@@H](CC(C)C)C(=O)N[C@H](C(=O)N[C@@H](CC(N)=O)C(=O)N[C@@H](Cc1ccc(O)cc1)C(=O)N[C@@H](C)C(=O)N[C@@H](CCCCN)C(=O)N[C@@H](CC(N)=O)C(=O)O)C(C)C [FVKILAKLVNYAKN]
MIC [1]: ≥ 100 µM
MIC [2]: ≥ 79 µM
MIC (Bacillus subtilis 168 HT): 19.8 µM (≈ 32.1 µg/mL)
MIC [3]: ≥ 100 µM

Compound: CC(C)[C@H](NC(=O)[C@H](CCCCN)NC(=O)[C@@H]1CCCN1C(=O)[C@@H](NC(=O)[C@@H](NC(=O)[C@H](CCCCN)NC(=O)[C@@H](N)CCCCN)C(C)C)C(C)C)C(=O)N[C@@H](CCCCN)C(=O)N[C@@H](Cc1ccccc1)C(=O)N[C@@H](CCCCN)C(N)=O [KKVVPKVKFK]
MIC [4]: ≥ 83.3 µM
MIC [5]: ≥ 83.3 µM
MIC [6]: ≥ 83.3 µM
MIC (Staphylococcus aureus): > 83.3 µM
MIC [7]: 83.3 µM (≈ 99.9 µg/mL)
MIC [8]: ≥ 83.3 µM
MIC [9]: > 83.3 µM

Compound: CC[C@H](C)[C@H](NC(=O)[C@H](CCCCN)NC(=O)[C@H](CCCN=C(N)N)NC(=O)[C@H](CCC(=O)O)NC(=O)[C@H](CCC(=O)O)NC(=O)[C@H](CCSC)NC(=O)[C@@H](NC(=O)[C@H](CC(N)=O)NC(=O)[C@@H](N)CO)C(C)C)C(=O)N[C@@H](CCCCN)C(=O)N[C@H](C(=O)N[C@@H](Cc1ccc(O)cc1)C(=O)N[C@@H](CC(C)C)C(=O)N1CCC[C@H]1C(=O)N[C@@H](CCCN=C(N)N)C(=O)N[C@@H](CCSC)C(=O)N[C@@H](CCCCN)C(=O)N[C@@H](CCSC)C(=O)N[C@@H](CCC(=O)O)C(=O)N[C@@H](CCC(=O)O)C(=O)O)C(C)C [SNVMEERKIKVYLPRMKMEE]
MIC [19]: ≥ 319 µM
MIC [20]: ≥ 319 µM
MIC [21]: ≥ 319 µM
MIC [22]: ≥ 319 µM
MIC [23]: ≥ 319 µM
MIC [24]: ≥ 319 µM

Compound: CC(C)C[C@H](NC(=O)[C@H](Cc1cnc[nH]1)NC(=O)CNC(=O)[C@@H]1CCCN1C(=O)[C@@H](NC(=O)[C@H](CCC(N)=O)NC(=O)[C@H](Cc1cnc[nH]1)NC(=O)[C@H](CC(C)C)NC(=O)[C@@H](NC(=O)[C@H](CCCCN)NC(=O)[C@@H]1CCCN1C(=O)[C@H](CC(C)C)NC(=O)[C@@H](N)Cc1ccc(O)cc1)C(C)C)[C@@H](C)O)C(=O)N[C@@H](CCCCN)C(=O)N1CCC[C@H]1C(=O)O [YLPKVLHQTPGHLKP]
MIC [25]: ≥ 289 µM
MIC [26]: ≥ 289 µM
MIC [27]: ≥ 289 µM
MIC [28]: ≥ 289 µM
MIC [29]: ≥ 51.1 µM
MIC [30]: ≥ 289 µM
MIC [31]: ≥ 51.1 µM
MIC [32]: ≥ 205 µM
MIC [33]: ≥ 289 µM

Second part, the compound after the results:

MIC [10]: 3.12 µM (≈ 12.4 µg/mL)
MIC [11]: 3.12 µM (≈ 12.4 µg/mL)
MIC [12]: 3.12 µM (≈ 12.4 µg/mL)
Compound: CC(C)C[C@H](NC(=O)[C@@H](N)CCCCN)C(=O)N[C@@H](CCCCN)C(=O)N[C@H](C(=O)N[C@@H](Cc1c[nH]c2ccccc12)C(=O)N1CCC[C@H]1C(=O)N[C@@H](CCCCN)C(=O)N[C@@H](CC(N)=O)C(=O)N[C@@H](Cc1ccc(O)cc1)C(=O)N[C@@H](Cc1c[nH]c2ccccc12)C(=O)N[C@@H](CCCN=C(N)N)C(=O)N[C@@H](CCCCN)C(=O)N[C@H](C(=O)N[C@@H](Cc1c[nH]c2ccccc12)C(=O)N[C@@H](CO)C(=O)N[C@@H](CCCCN)C(=O)N[C@@H](CCCCN)C(=O)N[C@@H](CC(N)=O)C(=O)N[C@@H](Cc1c[nH]c2ccccc12)C(=O)N[C@@H](CCCN=C(N)N)C(=O)N[C@@H](CCCCN)C(=O)N[C@@H](Cc1ccccc1)C(=O)N[C@H](C(=O)N[C@@H](CCCCN)C(=O)N[C@@H](CCCCN)C(=O)N[C@@H](Cc1ccccc1)C(=O)N[C@@H](CCCCN)C(=O)N[C@@H](Cc1cnc[nH]1)C(=O)N[C@@H](Cc1c[nH]c2ccccc12)C(=O)O)C(C)C)C(C)C)[C@@H](C)O [KLKTWPKNYWRKVWSKKNWRKFVKKFKHW]

MIC [13]: 23 µM (≈ 62.5 µg/mL)
MIC [14]: > 735 µM
MIC [15]: 11.5 µM (≈ 31.3 µg/mL)
MIC [16]: 91.9 µM (≈ 250 µg/mL)
MIC [17]: > 735 µM
MIC [18]: 91.9 µM (≈ 250 µg/mL)
Compound: CC(C)C[C@H](NC(=O)[C@H](CO)NC(=O)[C@H](CCCCN)NC(=O)[C@H](CO)NC(=O)[C@H](C)NC(=O)[C@H](Cc1ccccc1)NC(=O)[C@H](Cc1ccccc1)NC(=O)[C@H](CCCN=C(N)N)NC(=O)CNC(=O)[C@H](Cc1ccc(O)cc1)NC(=O)[C@H](CC(=O)O)NC(=O)[C@H](CS)NC(=O)[C@H](CCCN=C(N)N)NC(=O)[C@@H](N)CC(C)C)C(=O)N[C@@H](Cc1ccc(O)cc1)C(=O)N[C@@H](CC(=O)O)C(=O)N1CCC[C@H]1C(=O)N[C@@H](CC(C)C)C(=O)N[C@@H](CCCCN)C(=O)N[C@@H](CCCCN)C(=O)N[C@@H](CCCN=C(N)N)C(=O)N[C@@H](CCCN=C(N)N)C(=O)O [LRCDYGRFFASKSLYDPLKKRR]
